In ChEMBL document CHEMBL3886414, “Bicarbocyclic and tricarbocyclic ethynyl derivatives and uses of same” (2015) one finds IC50 data, which are given here for six molecules.

This test addresses Metabotropic glutamate receptor 5 (Homo sapiens, UniProt P41594). As to the kind of experiment: Calcium Mobilization Assay: The rmGluR5 or hmGluR5 was stably expressed in a HEK 293 cell line and gown in Dulbecco's Modified Eagle Medium (DMEM) (Invitrogen, Carlsbad, Calif.) with supplements (10% bovine calf serum, 4 mM glutamine, 100 units/mL penicillin, 100 μg/mL streptomycin and 0.75 mM G1418) at 37° C., 5% CO2. Twenty-four hours prior to assay, cells were seeded into 384-well black wall microtiter plates coated with poly-D-lysine. Just prior to assay, media was aspirated and cells dye-loaded (25 μL/well) with 3 μM Fluo-4/0.01% pluronic acid in assay buffer (Hank's Balanced Saline Solution (HBSS)): 150 mM NaCl, 5 mM KCl, 1 mM CaCl2, 1 mM MgCl2, plus 20 mM N-2-Hydroxyethylpiperazine-N′-2-ethanesulfonic acid (HEPES), pH 7.4, 0.1% bovine serum albumin (BSA) and 2.5 mM probenecid) for 1 hour in 5% CO2 at 37° C. After excess dye was discarded, cells were washed in assay buffer and layered with a final volume equal to 30 μL/well. Basal fluorescence is monitored in a fluorometri. The test is classed as functional, cell-based, HEK293. Background: Calcium flux is commonly read through the fluorescence of an indicator in the cells.

Metabotropic glutamate receptor 5, sequence (P41594 whole entry): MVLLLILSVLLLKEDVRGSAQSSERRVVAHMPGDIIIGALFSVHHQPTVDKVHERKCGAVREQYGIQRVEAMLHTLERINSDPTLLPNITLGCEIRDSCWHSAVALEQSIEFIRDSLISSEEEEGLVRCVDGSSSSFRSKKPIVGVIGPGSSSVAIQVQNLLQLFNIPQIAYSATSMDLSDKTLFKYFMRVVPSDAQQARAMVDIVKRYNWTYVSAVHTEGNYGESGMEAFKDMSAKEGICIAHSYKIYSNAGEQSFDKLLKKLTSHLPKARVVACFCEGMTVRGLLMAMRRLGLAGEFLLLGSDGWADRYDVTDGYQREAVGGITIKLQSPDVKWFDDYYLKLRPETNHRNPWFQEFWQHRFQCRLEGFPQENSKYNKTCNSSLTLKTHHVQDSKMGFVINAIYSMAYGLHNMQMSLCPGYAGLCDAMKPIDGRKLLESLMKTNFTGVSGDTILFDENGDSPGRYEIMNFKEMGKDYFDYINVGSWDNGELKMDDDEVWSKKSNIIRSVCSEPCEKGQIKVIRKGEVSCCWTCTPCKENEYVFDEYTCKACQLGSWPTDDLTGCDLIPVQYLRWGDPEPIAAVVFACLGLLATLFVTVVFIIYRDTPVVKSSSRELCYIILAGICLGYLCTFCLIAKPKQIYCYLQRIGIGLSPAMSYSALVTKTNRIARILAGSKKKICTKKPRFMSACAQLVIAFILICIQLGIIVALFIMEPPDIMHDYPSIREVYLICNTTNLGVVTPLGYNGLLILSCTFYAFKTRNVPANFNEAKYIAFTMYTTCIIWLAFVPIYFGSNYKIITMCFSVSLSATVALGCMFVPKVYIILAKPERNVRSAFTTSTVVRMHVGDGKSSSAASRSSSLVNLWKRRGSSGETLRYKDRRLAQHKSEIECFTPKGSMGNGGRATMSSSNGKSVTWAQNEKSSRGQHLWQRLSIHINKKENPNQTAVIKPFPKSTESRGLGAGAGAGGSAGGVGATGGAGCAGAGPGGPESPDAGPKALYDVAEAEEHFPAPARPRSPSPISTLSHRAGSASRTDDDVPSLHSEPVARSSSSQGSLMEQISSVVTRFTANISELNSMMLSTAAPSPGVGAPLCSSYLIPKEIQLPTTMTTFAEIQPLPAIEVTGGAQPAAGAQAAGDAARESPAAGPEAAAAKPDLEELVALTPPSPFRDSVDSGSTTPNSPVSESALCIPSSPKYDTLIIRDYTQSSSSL

For the molecule `Cc1ccc(C#CC23CC4CC(C2)CC(NC(=O)c2cnccn2)(C4)C3)cn1`, the IC50 (in general, the concentration needed to halve the response being measured) worked out at 700 nM.

Take `Cc1cncc(C(=O)NC23CC4CC(CC(C#Cc5cccnc5)(C4)C2)C3)n1`: the half-inhibitory concentration (IC50) was 3.8 nM.

As to `O=C(NC12CCCC(C#Cc3cccc(F)c3)(CC1)C2)c1cnccn1` (stereo unspecified), the IC50 was found to be 1.2 nM.

`O=C(NC12CC3CC(CC(C#Cc4cnccn4)(C3)C1)C2)c1cncc(F)c1`: the IC50 was 30 nM. On to `O=C(N[C@@]12CCC[C@@](C#Cc3ncccc3F)(CC1)C2)c1cnccn1`, for which the half-maximal inhibitory concentration (IC50) came out at 9.3 nM. Next, `Cc1cccc(C#C[C@]23CCC[C@](NC(=O)c4ccccn4)(CC2)C3)n1`: 5.3 nM.
